Read-outs that look alike come from different tables or passages of the source.
Assay: 1st phase clinical test: pharmacokinetics of petasin in serum after single oral administration of tablets containing butterbur extract (open crossover; enzyme immunoassay)
Assay type: in vivo, human (clinically healthy men)
Conditions: for concentration at 0.25 h: 0.25 h p.a.; for concentration at 0.5 h: 0.5 h p.a.; for concentration at 0.75 h: 0.75 h p.a.; for concentration at 1 h: 1 h p.a.; for concentration at 1.17 h: 1.17 h p.a. (1.167 in Table 3); for concentration at 1.5 h: 1.5 h p.a.; for concentration at 1.833 h: 1.833 h p.a.; for concentration at 2.167 h: 2.167 h p.a.; for concentration at 2.5 h: 2.5 h p.a.; for concentration at 3 h: 3 h p.a.; for concentration at 4 h: 4 h p.a.; for concentration at 5 h: 5 h p.a.; for concentration at 6 h: 6 h p.a.; for concentration at 8 h: 8 h p.a.; for concentration at 12 h: 12 h p.a.; for concentration at 24 h: 24 h p.a.; for Cmax / MRT / Tmax / half-life / AUC / AUC(0-t): single oral, mean ± SD; for AUC: read-out: AUC0-i; for AUC(0-t): read-out: AUC0-t(last)
Description: Petasin ovalbumin is adsorptively bound to polystyrene microtitration plates in a concentration of […] in 0.1 M carbonate buffer, pH=9.5, (100 μl/well) for 16 hours at 4° C. and thereupon sucked off. After washing it two times with 300 μl/well washing buffer (PBS, 0.1% Tween 20) it is blocked for 2 hours at room temperature with 150 μl/well blocking solution (0.6% gelatine, 0.02% […] in PBS) and subsequently washed three times with washing buffer.
50 μl of the serum sample to be tested or the respective standard (1:4 dilution in a sample buffer (PBS, 1% BSA, 0.1% Tween 20, 0.01% thiomersal) and 50 μL of an optimized anti-serum dilution in a sample buffer are simultaneously incubated with shaking for 1 hour at room temperature. Subsequently, the microtitration plate is washed three times with 300 μl/well of washing buffer and incubated for 30 min. at room temperature with 100 μl of anti-rabbit immunoglobulin peroxidase conjugate, diluted in sample buffer, and once more washed as above. Thereupon, it is incubated for 10 min. with 100 μl of a substrate solution ready for use (3.3′, 5.5′-tetramethyl benzidine) per well and the reaction is stopped by adding 100 μl/well of 0.5 M sulfuric acid. The evaluation is carried out at 450 nm in a microtitration plate reader.
In a 1st phase of the clinical test for determining the pharmacokinetic parameters of tablets containing butterbur extract was a single oral administrations of 2 or 4 tablets to 24 clinically healthy men at the age between 18 and 40 years.
The open, crossover test was chosen as method, single administration of each dose in a randomized order with an interval of at least 7 days between the administrations.
Model-independent pharmacokinetic parameters for petasin Statistical methods:
ANOVA, ANOVAlog, Wilcoxon-Mann-Whitney test, Wilcoxon-sign order test

[1] = male, human, serum, oral, 4 tablets, after administering 4 tablets, read-out: Petasin serum concentration Max.
[2] = male, human, serum, oral, 4 tablets, after administering 4 tablets, read-out: Petasin serum concentration Mean
[3] = male, human, serum, oral, 4 tablets, after administering 4 tablets, read-out: Petasin serum concentration Median
[4] = male, human, serum, oral, 4 tablets, after administering 4 tablets, read-out: Petasin serum concentration Min.

C=C(C)C1CC2(C)C(=CC1=O)CCC(OC(=O)/C(C)=C\C)C2C (stereo not drawn) [petasin]
concentration at 0 h (male, human, serum, oral, 4 tablets, after administering 4 tablets, 0 h p.a., read-out: Petasin serum concentration Min.): 0 ng/mL
concentration at 0.25 h [1]: 14.9 ng/mL
concentration at 0.25 h [2]: 4.2 ng/mL
concentration at 0.25 h [3]: 3.2 ng/mL
concentration at 0.25 h [4]: 1 ng/mL
concentration at 0.5 h [1]: 96.2 ng/mL
concentration at 0.5 h [2]: 21.2 ng/mL
concentration at 0.5 h [3]: 13.7 ng/mL
concentration at 0.5 h [4]: 1.3 ng/mL
concentration at 0.75 h [1]: 91.8 ng/mL
concentration at 0.75 h [2]: 28.7 ng/mL
concentration at 0.75 h [3]: 23 ng/mL
concentration at 0.75 h [4]: 2.5 ng/mL
concentration at 1 h [1]: 100 ng/mL
concentration at 1 h [2]: 36.6 ng/mL
concentration at 1 h [3]: 38.1 ng/mL
concentration at 1 h [4]: 7.8 ng/mL
concentration at 1.17 h [1]: 100 ng/mL
concentration at 1.17 h [2]: 47.3 ng/mL
concentration at 1.17 h [3]: 43.6 ng/mL
concentration at 1.17 h [4]: 7.5 ng/mL
concentration at 1.5 h [1]: 90.7 ng/mL
concentration at 1.5 h [2]: 40.8 ng/mL
concentration at 1.5 h [3]: 32.4 ng/mL
concentration at 1.5 h [4]: 12.2 ng/mL
concentration at 1.833 h [1]: 100 ng/mL
concentration at 1.833 h [2]: 32 ng/mL
concentration at 1.833 h [3]: 26.8 ng/mL
concentration at 1.833 h [4]: 13.8 ng/mL
concentration at 2.167 h [1]: 76.1 ng/mL
concentration at 2.167 h [2]: 28.9 ng/mL
concentration at 2.167 h [3]: 27.5 ng/mL
concentration at 2.167 h [4]: 11.4 ng/mL
concentration at 2.5 h [1]: 40.9 ng/mL
concentration at 2.5 h [2]: 24.3 ng/mL
concentration at 2.5 h [3]: 26.1 ng/mL
concentration at 2.5 h [4]: 8.4 ng/mL
concentration at 3 h [1]: 49 ng/mL
concentration at 3 h [2]: 17.9 ng/mL
concentration at 3 h [3]: 14.6 ng/mL
concentration at 3 h [4]: 7.2 ng/mL
concentration at 4 h [1]: 20.8 ng/mL
concentration at 4 h [2]: 9.5 ng/mL
concentration at 4 h [3]: 8.1 ng/mL
concentration at 4 h [4]: 2.9 ng/mL
concentration at 5 h [1]: 81.4 ng/mL
concentration at 5 h [2]: 12.4 ng/mL
concentration at 5 h [3]: 7.3 ng/mL
concentration at 5 h [4]: 3.2 ng/mL
concentration at 6 h [1]: 14.7 ng/mL
concentration at 6 h [2]: 5.8 ng/mL
concentration at 6 h [3]: 5 ng/mL
concentration at 6 h [4]: 1.6 ng/mL
concentration at 8 h [1]: 15.7 ng/mL
concentration at 8 h [2]: 3.9 ng/mL
concentration at 8 h [3]: 3.1 ng/mL
concentration at 8 h [4]: 1.4 ng/mL
concentration at 12 h [1]: 5.1 ng/mL
concentration at 12 h [2]: 2.7 ng/mL
concentration at 12 h [3]: 2.5 ng/mL
concentration at 12 h [4]: 1.3 ng/mL
concentration at 24 h [1]: 2.3 ng/mL
concentration at 24 h [2]: 1.3 ng/mL
concentration at 24 h [3]: 1 ng/mL
concentration at 24 h [4]: 1 ng/mL
Cmax (male, human, serum, 2 tablets): 25.5 ± 14.8 ng/mL
MRT (male, human, serum, 2 tablets): 7.32 ± 3.74 h
Tmax (male, human, serum, 2 tablets): 1.62 ± 0.499 h
half-life (male, human, serum, 2 tablets): 7.16 ± 4.61 h
AUC (male, human, serum, 2 tablets): 79.7 ± 42.3 ng·h/mL
AUC(0-t) (male, human, serum, 2 tablets): 65.3 ± 35.6 ng·h/mL
Cmax (male, human, serum, 4 tablets): 58.1 ± 26.7 ng/mL
MRT (male, human, serum, 4 tablets): 6.74 ± 2.47 h
Tmax (male, human, serum, 4 tablets): 1.61 ± 0.926 h
half-life (male, human, serum, 4 tablets): 7.62 ± 3.34 h
AUC (male, human, serum, 4 tablets): 168 ± 73.4 ng·h/mL
AUC(0-t) (male, human, serum, 4 tablets): 151 ± 68.2 ng·h/mL
Resorption (single oral administration of 2 or 4 tablets): takes quickly place depending on the dose

From patent publication US20050042701A1, “Anti-petasin antibodies, methods for the production thereof and their use” (priority 1998, published 2005)
